Where two headings read alike, the source gives them in different places.
Assays:
CSF1R = CSF1R (Homo sapiens, UniProt P07333); test: KINOMEscan competition binding assay for CSF1R; parameters: DNA tag for qPCR (not a peptide); host or cells: E. coli/T7 phage or HEK-293; conditions: for Kd: read-out: CSF1R kinase binding activity (Kd)
Method in brief: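 Values are either % inhibition at 0.1 uM, relative to DMSO (100% Ctrl) and a control compound (0% Ctrl), or Kd from an 11-point 3-fold series fitted with Hill slope −1. DNA-tagged kinase binds immobilized ligand beads with compound for 1 h at room temperature, and eluted kinase is measured by qPCR.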

Axl = target: T1, Axl (Homo sapiens, UniProt P30530); test: LanthaScreen Eu kinase binding assay for Axl; conditions: read-out: Axl kinase binding activity (Kd)
T1 sequence (P30530 26-894): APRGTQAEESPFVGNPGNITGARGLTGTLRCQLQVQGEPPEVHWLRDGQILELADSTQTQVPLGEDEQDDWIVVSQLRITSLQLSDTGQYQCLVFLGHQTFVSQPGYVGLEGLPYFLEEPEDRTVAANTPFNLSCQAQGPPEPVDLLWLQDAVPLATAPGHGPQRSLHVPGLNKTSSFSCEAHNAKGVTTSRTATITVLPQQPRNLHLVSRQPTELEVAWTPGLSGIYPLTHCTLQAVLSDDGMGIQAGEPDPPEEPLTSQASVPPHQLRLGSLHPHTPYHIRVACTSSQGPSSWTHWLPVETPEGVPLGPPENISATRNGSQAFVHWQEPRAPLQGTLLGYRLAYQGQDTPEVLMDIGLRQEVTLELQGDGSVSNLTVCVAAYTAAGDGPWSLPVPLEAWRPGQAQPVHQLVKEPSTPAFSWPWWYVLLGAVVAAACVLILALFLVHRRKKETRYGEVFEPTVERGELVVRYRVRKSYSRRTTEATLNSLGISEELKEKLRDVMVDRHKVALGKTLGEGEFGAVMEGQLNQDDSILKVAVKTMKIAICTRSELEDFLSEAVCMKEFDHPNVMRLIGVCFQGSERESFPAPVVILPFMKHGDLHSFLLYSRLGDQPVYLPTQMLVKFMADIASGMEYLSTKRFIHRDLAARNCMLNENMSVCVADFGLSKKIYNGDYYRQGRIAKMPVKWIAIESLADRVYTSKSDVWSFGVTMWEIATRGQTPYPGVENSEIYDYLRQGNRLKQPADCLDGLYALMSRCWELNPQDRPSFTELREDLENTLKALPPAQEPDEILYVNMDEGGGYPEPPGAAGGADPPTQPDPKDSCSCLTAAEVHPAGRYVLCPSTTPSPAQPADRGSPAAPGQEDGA
Method in brief: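 Kd values come from control-normalized FRET loss, referenced to DMSO vehicle wells, after 1 h at room temperature. Each compound was serially diluted over eight steps in DMSO and competed against Tracer 236 (Alexa Fluor 647) for the kinase, which was tagged by a Eu anti-GST antibody.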

[1] = read-out: CSF1R kinase binding activity, Percent (%) inhibition
[2] = read-out: CSF1R kinase binding activity, Range

Chain of CSF1R (P07333 20-972): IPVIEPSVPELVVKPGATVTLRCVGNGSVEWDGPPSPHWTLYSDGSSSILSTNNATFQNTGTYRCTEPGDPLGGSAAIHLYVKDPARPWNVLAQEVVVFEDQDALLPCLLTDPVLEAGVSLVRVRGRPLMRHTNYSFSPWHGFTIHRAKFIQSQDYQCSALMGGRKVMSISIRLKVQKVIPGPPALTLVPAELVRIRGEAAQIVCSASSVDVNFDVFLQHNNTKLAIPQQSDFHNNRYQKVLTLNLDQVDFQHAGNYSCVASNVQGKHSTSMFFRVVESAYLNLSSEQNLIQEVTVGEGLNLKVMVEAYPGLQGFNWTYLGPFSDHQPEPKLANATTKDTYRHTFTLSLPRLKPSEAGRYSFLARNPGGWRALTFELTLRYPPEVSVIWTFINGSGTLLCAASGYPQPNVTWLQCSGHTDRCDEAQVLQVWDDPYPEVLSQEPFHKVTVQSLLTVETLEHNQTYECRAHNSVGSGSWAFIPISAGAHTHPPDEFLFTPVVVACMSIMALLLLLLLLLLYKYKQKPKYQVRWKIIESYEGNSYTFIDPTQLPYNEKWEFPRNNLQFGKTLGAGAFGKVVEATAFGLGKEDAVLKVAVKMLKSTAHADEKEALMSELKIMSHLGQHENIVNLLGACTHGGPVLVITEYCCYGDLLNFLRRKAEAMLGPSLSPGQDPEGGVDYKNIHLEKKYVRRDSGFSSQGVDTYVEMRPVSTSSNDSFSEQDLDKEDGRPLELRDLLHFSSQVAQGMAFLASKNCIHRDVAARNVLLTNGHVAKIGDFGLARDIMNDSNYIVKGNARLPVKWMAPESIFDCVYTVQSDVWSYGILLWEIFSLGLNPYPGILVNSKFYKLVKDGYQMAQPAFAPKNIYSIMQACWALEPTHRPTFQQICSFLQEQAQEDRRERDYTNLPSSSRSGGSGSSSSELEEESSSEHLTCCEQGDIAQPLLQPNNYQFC

Row | SMILES | inhibition at 0.1 µM (CSF1R; [1]) [%] | inhibition at 0.1 µM (CSF1R; [2]) [%] | Kd (CSF1R) [nM] | Kd (Axl) [nM]
1 | COc1cc2nccc(Oc3ccc(NC(=O)c4nn(C5CCOC5)cc4OCC(F)(F)F)nc3)c2cc1OC (centres unmarked) [Compound 13] | 98 | ≥ 80 | < 100 | < 100
2 | COc1cc2nccc(Oc3ccc(NC(=O)c4nn(C5CC5)cc4OCCC(F)(F)F)nn3)c2cc1OC [Compound 173] | 69 | 50 to 80 | – | < 100
3 | COc1cc2nccc(Oc3ccc(NC(=O)c4nn(C5CCC5)cc4OCC(F)(F)F)nc3)c2cc1OC [Compound 24] | 96 | ≥ 80 | – | < 100
4 | COc1cc2nccc(Oc3ccc(NC(=O)c4nn(C(C)C)c(C)c4OCC(F)(F)F)nc3)c2cc1OC [Compound 2] | 89 | ≥ 80 | 100 to 500 | < 100
5 | COc1cc2nccc(Oc3ccc(NC(=O)c4nn(C5CC5)cc4OCCC(F)(F)F)nc3)c2cc1OC [Compound 170] | 90 | ≥ 80 | – | < 100
6 | CCCCn1cc(OCC(F)(F)F)c(C(=O)Nc2ccc(Oc3ccnc4cc(OC)c(OC)cc34)cn2)n1 [Compound 36] | 95 | ≥ 80 | – | < 100
7 | COc1cc2nccc(Oc3ccc(NC(=O)c4nn(CC(C)C)cc4OCC(F)(F)F)nc3)c2cc1OC [Compound 21] | 95 | ≥ 80 | – | < 100
8 | COc1cc2nccc(Oc3ccc(NC(=O)c4nn(C5CCOC5)cc4OCC(F)(F)F)cc3F)c2cc1OC (centres unmarked) [Compound 55] | 60 | 50 to 80 | – | < 100
9 | COc1cc2nccc(Oc3ccc(NC(=O)c4nn(C5CCCC5)cc4OCC(F)(F)F)c(F)c3)c2cc1OC [Compound 47] | 91 | ≥ 80 | – | < 100
10 | COc1cc2nccc(Oc3ccc(NC(=O)c4nn(CCN)cc4OCC(F)(F)F)c(F)c3)c2cc1OC [Compound 75] | 57 | 50 to 80 | – | 100 to 500
11 | COc1cc2nccc(Oc3ccc(NC(=O)c4nn(CC5CC5)cc4OCC(F)(F)F)nc3)c2cc1OC [Compound 41] | 97 | ≥ 80 | – | < 100
12 | COc1cc2nccc(Oc3ccc(NC(=O)c4nn(CCCN)cc4OCC(F)(F)F)nc3)c2cc1OC [Compound 68] | 98 | ≥ 80 | – | < 100
13 | COc1cc2nccc(Oc3ccc(NC(=O)c4nn(CC5CCNC5)cc4OCC(F)(F)F)nc3)c2cc1OC (centres unmarked) [Compound 72] | 96 | ≥ 80 | – | < 100
14 | COCCOc1cn(C2CC2)nc1C(=O)Nc1ccc(Oc2ccnc3cc(OC)c(OC)cc23)nn1 [Compound 171] | 60 | 50 to 80 | – | < 100
15 | CCCn1cc(OCC(F)(F)F)c(C(=O)Nc2ccc(Oc3ccnc4cc(OC)c(OC)cc34)cc2)n1 [Compound 38] | 87 | ≥ 80 | – | < 100
16 | COc1cc2nccc(Oc3ccc(NC(=O)c4nn(CC5CCOC5)cc4OCC(F)(F)F)nc3)c2cc1OC (centres unmarked) [Compound 44] | 82 | ≥ 80 | – | < 100
17 | COc1cc2nccc(Oc3ccc(NC(=O)c4nn(CC(C)C)cc4OCC(F)(F)F)cc3F)c2cc1OC [Compound 53] | 71 | 50 to 80 | – | < 100
18 | COc1cc2nccc(Oc3ccc(NC(=O)c4nn(CCCO)cc4OCC(F)(F)F)nc3)c2cc1OC [Compound 18] | 97 | ≥ 80 | – | < 100
19 | COc1cc2nccc(Oc3ccc(NC(=O)c4nn(C5CCCC5)cc4OCC(F)(F)F)cc3F)c2cc1OC [Compound 52] | 71 | 50 to 80 | – | < 100
20 | CCCn1cc(OCC(F)(F)F)c(C(=O)Nc2ccc(Oc3ccnc4cc(OC)c(OC)cc34)c(F)c2)n1 [Compound 25] | 87 | ≥ 80 | – | < 100
21 | COCCn1cc(OCC(F)(F)F)c(C(=O)Nc2ccc(Oc3ccnc4cc(OC)c(OC)cc34)c(F)c2)n1 [Compound 54] | 81 | ≥ 80 | – | < 100
22 | COc1cc2nccc(Oc3ccc(NC(=O)c4nn(CC(C)O)cc4OCC(F)F)nc3)c2cc1OC (centres unmarked) [Compound 175] | 97 | ≥ 80 | – | < 100
23 | CCC(=O)n1cc(OCC(F)(F)F)c(C(=O)Nc2ccc(Oc3ccnc4cc(OC)c(OC)cc34)cn2)n1 [Compound 20] | 99 | ≥ 80 | – | < 100
